Columns and labels:
[1] = test system: cyclin D1; assay: Cyclin expression, Western blotting: cyclin D1; type: cell-based, human; conditions: HUVEC; 1, 5, 10, 25 μM; 10 ng/mL VEGF; 12 hours
Experimental: (§1) 3×10^5 HUVEC were placed on a 60 mm plate and cultured for 24 hours. After washing twice with M199 medium (Invitrogen, USA), the cells were cultured in M199 medium containing 1% FBS for 6 hours. After adding capsiate or dihydrocapsiate at different concentrations (1 μM, 5 μM, 10 μM, 25 μM), followed by pre-culturing for 30 minutes, 10 ng/mL VEGF was added and the cells were cultured for 12 hours. The cells were collected and proteins obtained therefrom were quantitated and the expression level of the proteins was identified by Western blotting using antibodies of cyclin D1, cyclin E and cyclin A.

[2] = test system: HaCaT cells; assay: UV-induced intracellular ROS production (DCFH-DA fluorescence microscopy); type: cell-based, human; conditions: 50 μM, UV 100 J/m^2, vs UV only control group
Experimental: 5×10^5 HaCaT cells (acquired from Professor N. Fusenig of the German Cancer Research Center), which are a human keratinocyte cell line, were placed on a 60 mm Petri dish (1×10^6 cells for a 100 mm Petri dish) and cultured for 24 hours in Dulbecco's modified Eagle's medium (DMEM) containing 10% fetal bovine serum (FBS).
After treating with 50 μM capsiate for 30 minutes, the cells were washed 3 times with phosphate buffered saline (PBS). In order to induce the production of ROS, UV was irradiated at an intensity of 100 J/m^2, using a UV lamp (FSX 24 T12/UVB/HO, Pansol™ USA). Immediately after the UV irradiation, the cells were washed again with PBS and further cultured for 2 hours in DMEM containing 1% FBS, which was treated with capsiate at the same concentration as in the pre-treatment. After treating with 25 μM 2,7-dichlorofliuorescin diacetate (DCFH-DA) in Hank's balanced salt solution (HBSS, BioWhittaker Cambrex, USA) for 30 minutes, the cells were washed 3 times with PBS.
The treated cells were observed under a fluorescence microscope (Carl Zeiss, USA) in order to measure the ROS produced by the UV irradiation. […]
Inhibition effect on the production of intracellular ROS induced by UV was measured in the same manner as Example 1-1, except for using dihydrocapsiate instead of capsiate.

[3] = test system: C57/BL6 mouse; assay: Mouse Matrigel plug assay; type: in vivo; conditions: 60 μg in 0.6 mL Matrigel with 100 ng VEGF, subcutaneous injection, 6 days
Experimental: Mouse Matrigel plug was carried out in order to investigate the effect of capsiate or dihydrocapsiate on VEGF-induced angiogenesis in vivo [Min K J et al., 2007, Blood, 15: 1495-1502].
0.6 mL of Matrigel containing 60 μg of capsiate or dihydrocapsiate, 100 ng of VEGF and 10 units of heparin or Matrigel containing 100 ng of VEGF only was administered to C57/BL6 mouse (Orient, Korea) through subcutaneous injection. 6 days later, the produced Matrigel plug was taken out.

[4] = test system: cyclin A; assay: Cyclin expression, Western blotting: cyclin A; type: cell-based, human; conditions: HUVEC; 1, 5, 10, 25 μM; 10 ng/mL VEGF; 12 hours
Experimental: as §1

[5] = test system: cyclin E; assay: Cyclin expression, Western blotting: cyclin E; type: cell-based, human; conditions: HUVEC; 1, 5, 10, 25 μM; 10 ng/mL VEGF; 12 hours
Experimental: as §1

[6] = test system: HUVEC; assay: VEGF-induced proliferation of endothelial cells, 3H-thymidine incorporation assay; type: cell-based, human; conditions: 25 μM; 10 ng/mL VEGF
Experimental: The inhibition effect of capsiate or dihydrocapsiate on the proliferation of EC induced by VEGF was investigated by ^3H-thymidine incorporation assay according to a method published in the literature [Lee O H et al., 1999, Biochem. Biophys. Res. Commun., 264: 743-750].
In brief, HUVEC were placed on a gelatin-coated 24-well plate at a concentration of 2×10^4 cells/well. After culturing for 24 hours, followed by washing twice with M199 medium (Invitrogen, USA), the cells were cultured for 6 hours in M199 medium containing 1% FBS. After addition of 25 μM capsiate or dihydrocapsiate, followed by pre-culturing for 30 minutes, 10 ng/mL VEGF was added and the cells were cultured for 30 hours. Then, 0.5 μCi/mL ^3H-thymidine was added and the cells were cultured for 6 hours.
DNA was precipitated from the cultured cells in 10% trichloroacetic acid at 4° C. for 30 minutes and washed twice with water. The DNA was dissolved in 0.2 N NaOH/0.1% SDS and measured using a liquid scintillation counter.

[7] = test system: COX-2; assay: UV-induced COX-2 expression, Western blotting; type: cell-based, human; conditions: HaCaT cells; 10, 25, 50 μM; UV 100 J/m^2; 16 hours
Experimental: In order to investigate the effect of capsiate on UV-induced COX-2 expression in human keratinocytes, 5×10^5 HaCaT cells were placed on a 60 mm Petri dish and cultured for 24 hours in DMEM containing 10% FBS.
Subsequently, the cells were cultured for 24 hours in DMEM containing 1% FBS until starvation. Then, after treating with capsiate for 30 minutes at different concentrations (10 μM, 25 μM, 50 μM), followed by washing 3 times with PBS, UV was irradiated at an intensity of 100 J/m^2 in order to induce the expression of COX-2. Immediately after the UV irradiation, the cells were washed again with PBS and further cultured for 16 hours in DMEM containing 1% FBS, which was treated with capsiate at the same concentration as in the pre-treatment.
Western blotting was carried out as follows in order to evaluate the degree of COX-2 expression in the cells. […]
In order to investigate the effect of dihydrocapsiate on UV-induced COX-2 expression in human keratinocytes, the degree of COX-2 expression was evaluated in the same manner as Example 2-1, except for using dihydrocapsiate instead of capsiate.

SMILES	VEGF-increased cyclin D1 expression in protein level [1]	production of intracellular ROS induced by UV [2]	VEGF-induced angiogenesis in Matrigel plug (colour) [3]	VEGF-increased cyclin A expression in protein level [4]	VEGF-increased cyclin E expression in protein level [5]	VEGF-increased DNA synthesis in HUVEC (3H-thymidine incorporation) [6]	UV-induced COX-2 expression [7]
COc1cc(COC(=O)CCCC/C=C/C(C)C)ccc1O [capsiate]	concentration-dependent decrease	decreased remarkably	angiogenesis hardly occurred	concentration-dependent decrease	concentration-dependent decrease	inhibited the DNA synthesis	decreased in a concentration-dependent manner
COc1cc(COC(=O)CCCCCCC(C)C)ccc1O [dihydrocapsiate]	concentration-dependent decrease	decreased remarkably	angiogenesis hardly occurred	concentration-dependent decrease	concentration-dependent decrease	inhibited the DNA synthesis	decrease of the increased COX-2 expression in a concentration-dependent manner

From patent US9572786B2, “Use of capsiate or dihydrocapsidate” (Catholic University Industry Academy Cooperation Foundation, priority 2007, dated 2017)
